The test system of one test is Streptococcus pyogenes. Briefly: Antibacterial activity against Streptococcus pyogenes C203 SP1-1 by micro-broth method. The test is classed as functional.
A further test concerns Streptococcus pneumoniae. Briefly: Antibacterial activity against Streptococcus pneumoniae SV1 SP3 by micro-broth method. The test is classed as functional.
The subject of the next test is Staphylococcus aureus. In words: Antibacterial activity against Staphylococcus aureus UC76 SA1 by micro-broth method. Type of test: functional.
In the next test the test system is Escherichia coli. In words: Inhibition of transcription and translation activity in Escherichia coli by luciferase reporter assay. The test is classed as functional, organism-based.
A further test relates to Moraxella catarrhalis. Briefly: Antibacterial activity against Moraxella catarrhalis BC-3531 by micro-broth method. Type of test: functional.
The test system of another test is Haemophilus influenzae. In words: Antibacterial activity against Heamophilus influenzae HI3542 by microbroth method. Type of test: functional.
The next test concerns Enterococcus faecalis. Briefly: Antibacterial activity against Enterococcus faecalis MG2 EF1 by micro-broth method. Type of test: functional.

Each structure is given as a SMILES string. ≈ marks a conversion by molar mass, not a printed value.

With `CC(=O)NC[C@H]1CN(c2ccc3c(c2)CCCc2c(C(F)(F)F)n[nH]c2-3)C(=O)O1`, the MIC against Streptococcus pyogenes amounted to 1 mg/L (≈ 2.45 µM); against Streptococcus pneumoniae, 0.25 mg/L (≈ 0.612 µM); against Staphylococcus aureus, 1 mg/L (≈ 2.45 µM); in the test with Moraxella catarrhalis, 1 mg/L (≈ 2.45 µM); against Haemophilus influenzae, 4 mg/L (≈ 9.79 µM); against Enterococcus faecalis, 1 mg/L (≈ 2.45 µM). Further, in the test with Escherichia coli, inhibition was half-maximal at 1.3 µM (IC50).
For `CC(=O)NC[C@H]1CN(c2ccc3c(c2)CCCc2c(-c4snnc4C)n[nH]c2-3)C(=O)O1`, the MIC was 0.125 mg/L (≈ 0.285 µM) with Streptococcus pyogenes; 0.25 mg/L (≈ 0.57 µM) in the test with Streptococcus pneumoniae; 0.5 mg/L (≈ 1.14 µM) against Staphylococcus aureus; 2 mg/L (≈ 4.56 µM) in the test on Moraxella catarrhalis; 8 mg/L (≈ 18.2 µM) in the test with Haemophilus influenzae; 0.5 mg/L (≈ 1.14 µM) against Enterococcus faecalis. In the test with Escherichia coli, this molecule yielded an IC50 of 0.7 µM.
For `CC(=O)NC[C@H]1CN(c2cc(F)c3c(c2)CCCc2c(-c4ccco4)n[nH]c2-3)C(=O)O1`, the MIC against Streptococcus pyogenes came out at 1 mg/L (≈ 2.36 µM); in the test with Streptococcus pneumoniae, 1 mg/L (≈ 2.36 µM); against Staphylococcus aureus, 2 mg/L (≈ 4.71 µM); in the test on Moraxella catarrhalis it was 8 mg/L (≈ 18.8 µM); with Haemophilus influenzae, 64 mg/L (≈ 151 µM); in the test on Enterococcus faecalis it was 2 mg/L (≈ 4.71 µM). It took 5.7 µM to reach half-maximal inhibition with Escherichia coli (IC50).
On to `CC(=O)NC[C@H]1CN(c2ccc3c(c2)CCCc2c(-c4cc5ccccc5o4)n[nH]c2-3)C(=O)O1`, for which the MIC in the test with Streptococcus pyogenes was 0.5 mg/L (≈ 1.1 µM); in the test with Streptococcus pneumoniae, 0.5 mg/L (≈ 1.1 µM); in the test with Staphylococcus aureus, 2 mg/L (≈ 4.38 µM); in the test on Moraxella catarrhalis it was 8 mg/L (≈ 17.5 µM); with Haemophilus influenzae it was more than 64 mg/L; against Enterococcus faecalis, 0.5 mg/L (≈ 1.1 µM). Also, the IC50 in the test with Escherichia coli was more than 31.2 µM.
As for `CCOC(=O)NC[C@H]1CN(c2ccc3c(c2)CCCc2c(-c4ccno4)n[nH]c2-3)C(=O)O1`, the MIC against Streptococcus pyogenes was 0.5 mg/L (≈ 1.14 µM); against Streptococcus pneumoniae, 0.5 mg/L (≈ 1.14 µM); against Staphylococcus aureus it was 1 mg/L (≈ 2.29 µM); with Moraxella catarrhalis, 4 mg/L (≈ 9.14 µM); against Haemophilus influenzae, more than 64 mg/L; with Enterococcus faecalis it was 0.5 mg/L (≈ 1.14 µM). The molecule also registered a 50% inhibitory concentration (IC50) in the test with Escherichia coli of 1.8 µM.
As for `O=C(NC[C@H]1CN(c2ccc3c(c2)CCCc2c(-c4cc5ccccc5o4)n[nH]c2-3)C(=O)O1)c1cc2ccccc2o1`, the MIC against Streptococcus pyogenes was 4 mg/L (≈ 7.16 µM); in the test on Streptococcus pneumoniae, 8 mg/L (≈ 14.3 µM); against Staphylococcus aureus, 32 mg/L (≈ 57.3 µM); with Moraxella catarrhalis, more than 64 mg/L; in the test with Haemophilus influenzae, more than 64 mg/L; against Enterococcus faecalis, 32 mg/L (≈ 57.3 µM). Further, the IC50 in the test on Escherichia coli is more than 25 µM.
As to `CC(=O)NC[C@H]1CN(c2cc(F)c3c(c2)CCCc2c(-c4cc(C)on4)n[nH]c2-3)C(=O)O1`, the MIC with Streptococcus pyogenes is 0.5 mg/L (≈ 1.14 µM); against Streptococcus pneumoniae, 0.5 mg/L (≈ 1.14 µM); against Staphylococcus aureus it was 1 mg/L (≈ 2.28 µM); in the test on Moraxella catarrhalis, 4 mg/L (≈ 9.1 µM); against Haemophilus influenzae it was more than 64 mg/L; in the test on Enterococcus faecalis, 0.5 mg/L (≈ 1.14 µM). The molecule further returned an IC50 in the test with Escherichia coli of 2.1 µM.
Regarding `NC[C@H]1CN(c2ccc3c(c2)CCCc2c(-c4ccno4)n[nH]c2-3)C(=O)O1`, the MIC was 2 mg/L (≈ 5.47 µM) in the test on Streptococcus pyogenes; 4 mg/L (≈ 10.9 µM) in the test with Streptococcus pneumoniae; 16 mg/L (≈ 43.8 µM) in the test on Staphylococcus aureus; 64 mg/L (≈ 175 µM) against Moraxella catarrhalis; more than 64 mg/L in the test with Haemophilus influenzae; 8 mg/L (≈ 21.9 µM) against Enterococcus faecalis. In the test on Escherichia coli, this molecule registered an IC50 of 8.3 µM.
Take `CC(=O)NC[C@H]1CN(c2cc(F)c3c(c2)CCCc2c(-c4ccno4)n[nH]c2-3)C(=O)O1`: the MIC is 0.25 mg/L (≈ 0.588 µM) with Streptococcus pyogenes; 0.5 mg/L (≈ 1.18 µM) in the test with Streptococcus pneumoniae; 1 mg/L (≈ 2.35 µM) against Staphylococcus aureus; 4 mg/L (≈ 9.4 µM) against Moraxella catarrhalis; more than 64 mg/L in the test with Haemophilus influenzae; 0.5 mg/L (≈ 1.18 µM) against Enterococcus faecalis. Moreover, half-maximal inhibition in the test on Escherichia coli (IC50) was put at 1.4 µM.
In the case of `CC(=O)NC[C@H]1CN(c2ccc3c(c2)CCCc2c(-c4ccc(C#N)cc4)n[nH]c2-3)C(=O)O1`, the MIC was found to be 0.125 mg/L (≈ 0.283 µM) against Streptococcus pyogenes; 0.25 mg/L (≈ 0.566 µM) with Streptococcus pneumoniae; 0.5 mg/L (≈ 1.13 µM) against Staphylococcus aureus; 1 mg/L (≈ 2.27 µM) in the test with Moraxella catarrhalis; 4 mg/L (≈ 9.06 µM) against Haemophilus influenzae; 0.25 mg/L (≈ 0.566 µM) in the test with Enterococcus faecalis. The IC50 in the test on Escherichia coli amounted to 1.4 µM.
On to `CC(=O)NC[C@H]1CN(c2ccc3c(c2)CCCc2c(-c4ccc(F)cc4)n[nH]c2-3)C(=O)O1`, for which the MIC with Streptococcus pyogenes was found to be 1 mg/L (≈ 2.3 µM); in the test on Streptococcus pneumoniae, 0.25 mg/L (≈ 0.575 µM); in the test with Staphylococcus aureus, 0.5 mg/L (≈ 1.15 µM); in the test with Moraxella catarrhalis, 1 mg/L (≈ 2.3 µM); in the test on Haemophilus influenzae, 8 mg/L (≈ 18.4 µM); with Enterococcus faecalis, 0.5 mg/L (≈ 1.15 µM). In the test on Escherichia coli, this molecule returned a half-maximal inhibitory concentration (IC50) of 1.5 µM.
`O=C(NC[C@H]1CN(c2ccc3c(c2)CCCc2c(-c4cccnc4)n[nH]c2-3)C(=O)O1)c1cccnc1`: the MIC in the test with Streptococcus pyogenes was 2 mg/L (≈ 4.16 µM); with Streptococcus pneumoniae, 1 mg/L (≈ 2.08 µM); against Staphylococcus aureus, 8 mg/L (≈ 16.6 µM); against Moraxella catarrhalis, 16 mg/L (≈ 33.3 µM); in the test with Haemophilus influenzae it was more than 64 mg/L; with Enterococcus faecalis, 4 mg/L (≈ 8.32 µM). Inhibition in the test with Escherichia coli was half-maximal at 3.7 µM (IC50).
Consider `O=C(NC[C@H]1CN(c2ccc3c(c2)CCCc2c(-c4ccno4)n[nH]c2-3)C(=O)O1)C(F)F`, for which the MIC in the test on Streptococcus pyogenes amounted to 0.125 mg/L (≈ 0.282 µM); against Streptococcus pneumoniae it was 0.25 mg/L (≈ 0.564 µM); with Staphylococcus aureus it was 0.5 mg/L (≈ 1.13 µM); in the test on Moraxella catarrhalis it was 1 mg/L (≈ 2.26 µM); against Haemophilus influenzae, 4 mg/L (≈ 9.02 µM); against Enterococcus faecalis, 0.5 mg/L (≈ 1.13 µM). In the test with Escherichia coli, this molecule showed an IC50 of 0.21 µM.
In the case of `O=C(NC[C@H]1CN(c2ccc3c(c2)CCCc2c(-c4ccno4)n[nH]c2-3)C(=O)O1)C1CC1`, the MIC was 0.25 mg/L (≈ 0.577 µM) against Streptococcus pyogenes; 0.25 mg/L (≈ 0.577 µM) against Streptococcus pneumoniae; 1 mg/L (≈ 2.31 µM) in the test with Staphylococcus aureus; 1 mg/L (≈ 2.31 µM) in the test with Moraxella catarrhalis; 32 mg/L (≈ 73.8 µM) in the test on Haemophilus influenzae; 0.5 mg/L (≈ 1.15 µM) against Enterococcus faecalis. Further, the midpoint of inhibition in the test on Escherichia coli, the IC50, lay at 1.3 µM.
